In one experiment the test system is ddY-mice. Description: Lipid Lowering Effect on ddY-Mice. The experiment is classed as in vivo. The following applies: male ddY-mice, dose 0.32 mg/kg orally in olive oil, plasma TG 2 hours after administration; (TG increase in drug treated group/TG increase in control group)×100. How it is done:
Test 2: Lipid Lowering Effect on ddY-Mice
Male ddY-mice were housed in temperature- and humidity-controlled rooms and fed with laboratory chow. The animals were randomized according to their body weight and food was deprived about 16 hours before experiment. Baseline blood sample was collected from the retro orbital venous plexus then the animals were orally dosed with drugs in olive oil (10 ml/kg). For control group, 10 ml/kg of olive oil was loaded orally. Blood samples were drawn at 2 hours after drug administration for the measurement of triglyceride (TG) elevation. Plasma TG was determined by conventional enzyme method (The triglyceride E-test Wako).
Lipid lowering effects were shown in percent of the TG increase in drug treated group, relative to the TG increase in control group.
Lipid lowering effect(%)=(TG increase in drug treated group/TG increase in control group)×100

The test system of another experiment is Apo B secretion. Description: Measurement of Inhibition of Apo B Secretion. The format is cell-based. The following applies: Homo sapiens; HepG2 cells, 10^−8 M test compound, 15-hour incubation, Apo B in media by ELISA, 0.1% DMSO treated cells as controls. How it is done:
Test 1: Measurement of Inhibition of Apo B Secretion
HepG2 cells were seeded in Eagles medium containing 10% fetal calf serum (FCS) at a density of 30000 cells/well in 96-well plates and allowed to grow for 3 days before treatment. At this time, the medium was replaced with fresh medium containing 0.1% dimethyl sulfoxide (DMSO) and the indicated concentrations of a test compound. After 15-hour incubation, the amount of Apo B and Apo AI accumulated in the media was determined by ELISA.
The assay was carried out at ambient temperature. A flat bottomed micro ELISA plate (manufactured by Nunc) was coated with an anti Apo B monoclonal antibody solution ([…] in 0.05% carbonate buffer, pH 9.6) by adding the antibody solution at a volume of 100 μl per well. After 1-hour incubation on a plate mixer, the unbound materials were removed by washing the well 3 times with a washing buffer (phosphate buffered saline, pH 7.2 containing 0.1% bovine serum albumin and 0.05% Tween-20). Then 20 μl of […] and 100 μl of a solution of peroxidase coupled anti Apo B antibody were added. After 1-hour incubation on a plate mixer, washing was performed 3 times to remove the unbound materials. A freshly prepared substrate solution (2.5 mg/ml ortho-phenylene diamine and 0.018% H2O2 in 0.11 M Na2HPO4-0.044 M sodium citrate buffer, pH 5.4) at a volume of 200 μl was then added to each well. After 20-minute incubation, the enzyme reaction was terminated by adding 50 μl of 0.5 M sulfuric acid. Absorbance of each well was determined at 490 nm using a microplate reader. Apo B concentration was calculated from a standard curve generated from purified Apo B standard that was run in parallel in the same plate. Inhibition of Apo B secretion by the test compound was calculated taking 0.1% DMSO treated cells as controls.
Measurement of Apo AI was performed similar to that of Apo B, except for diluting the sample 11-fold with a dilution buffer (phosphate buffered saline, pH 7.2 containing 0.5% bovine serum albumin and 0.05% Tween-20).
Apo B secretion inhibitors are identified as compounds that decrease Apo B secretion without affecting the secretion of Apo AI.

Consider `Cc1ccc(C(=O)Nc2ccc(NCCc3ccccn3)cc2)c(N(C)C)c1` [Example 42, 2-(Dimethylamino)-4-methyl-N-(4-{[2-(2-pyridinyl)ethyl]amino}phenyl)benzamide], for which, in the experiment with ddY-mice, the “TG increase relative to control (%)” value is given as 33%. Moreover, at 0.01 µM the inhibition in the experiment with Apo B secretion was 85.8%.

Consider `CC1CCN(c2ncccc2C(=O)Nc2ccc(NCCc3ccccn3)cc2)CC1` [Example 54, 2-(4-Methyl-1-piperidinyl)-N-(4-{[2-(2-pyridinyl)ethyl]amino}phenyl)nicotinamide], for which the “TG increase relative to control (%)” value in the experiment on ddY-mice was found to be 28%. The inhibition – broadly, how much of the control response was suppressed – at 0.01 µM with Apo B secretion is 86.3%.

Turning to `Cc1ccc(C(=O)Nc2ccc(NCCn3cccn3)cc2)c(N(C)C)c1` [Example 183, 2-(dimethylamino)-4-methyl-N-(4-{[2-(1H-pyrazol-1-yl)ethyl]amino}phenyl)benzamide], the “TG increase relative to control (%)” value in the experiment with ddY-mice is given as 27%. In addition, the inhibition at 0.01 µM in the experiment with Apo B secretion turned out to be 81.2%.

In the experiment with Apo B secretion, `Cc1ccc(C(=O)Nc2ccc(NC(=O)Cn3cccn3)cc2)c(N2CCC(C)CC2)n1` [Example 193, 6-methyl-2-(4-methyl-1-piperidinyl)-N-{4-[(1H-pyrazol-1-ylacetyl)amino]phenyl}nicotinamide] yielded an inhibition at 0.01 µM of 71.5%.

`Cc1ccc(C(=O)Nc2ccc(NC(=O)C(C)c3ccccn3)cc2)c(N2CCC(C)CC2)n1` (centres unmarked) [Example 415, 6-Methyl-2-(4-methyl-1-piperidinyl)-N-(4-{[2-(2-pyridinyl)propanoyl]amino}phenyl)nicotinamide] gave an inhibition at 0.01 µM with Apo B secretion of 76.2%.

On to `CN(C)c1cc(Cl)ccc1C(=O)Nc1ccc(NCCc2cccc(N)n2)cc1` [Example 435, N-(4-{[2-(6-Amino-2-pyridinyl)ethyl]amino}phenyl)-4-chloro-2-(dimethylamino)benzamide], for which the “TG increase relative to control (%)” value in the experiment on ddY-mice came out at 52%. 0.01 µM produced 85.9% inhibition with Apo B secretion.

In the case of `CCc1ccc(C(=O)Nc2ccc(NCCn3cccn3)cc2)c(N(C)C)c1` [Example 473, 2-(Dimethylamino)-4-ethyl-N-(4-{[2-(1H-pyrazol-1-yl)ethyl]amino}phenyl)benzamide], testing at 0.01 µM with Apo B secretion gave an inhibition of 75.7%.

The values above are taken from patent US20040133008A1, “Amide compounds” (FUJISAWA PHARMACEUTICAL CO., LTD., priority 2002, published 2004).
